# Assay results taken from patent US12396458B2, “Fused ring substituted aromatic compound and preparation method therefor, herbicidal composition, and use thereof” (Qingdao Kingagroot Chemical Compound Co., Ltd., priority 2020, dated 2025).
# Legend:
# Assay in all cases: Weeding effect in post-emergence stage (greenhouse pot test)
# Type in all cases: in vivo
# Alopecurus japonicus = conditions: dose 15 g a.i./ha, 3 weeks after application, fresh weight control rate
# Description: (§1) The activity level criteria for plant damage (i.e., growth control rate) are as follows:
# (§2) Level 5: growth control rate is above 85%; • Level 4: growth control rate is greater than or equal to 60% and less than 85%; • Level 3: growth control rate is greater than or equal to 40% and less than 60%; • Level 2: growth control rate is greater than or equal to 20% and less than 40%; • Level 1: growth control rate is greater than or equal to 5% and less than 20%; • Level 0: growth control rate is less than 5%.
# (§3) The above growth control rates are fresh weight control rates.
# (§4) Experiment on weeding effect in post-emergence stage:
# (§5) Monocotyledonous and dicotyledonous weed seeds (Descurainia sophia, Capsella bursa-pastoris, Abutilon theophrasti, Galium aparine, Stellaria media, Lithospermum arvense, Rorippa indica, Alopecurus aequalis, Alopecurus japonicus, Eleusine indica, Beckmannia syzigachne, Sclerochloa dura, Phleum paniculatum, Veronica didyma Tenore, Bromus japonicus, Aegilops tauschii, Phalaris arundinacea, Amaranthus retrojlexus, Chenopodiaceae, Commelina communis, Sonchus arvensis, convolvulus arvensis, Cirsium setosum, Solanum nigrum, Acalypha australis, Digitaria sanguinalis, Echinochloa crusgalli, Setaria viridis, Setaria glauca, Leptochloa chinensis, Monochoria vaginalis, Sagittaria trifolia, Scirpus juncoides, Cyperus rotundus, Cyperus iria, Cyperus difformis, Fimbristylis, Portulaca oleracea, Xanthium sibiricum, Pharbitis nil, Conyza japonica, etc.) and major crop seeds (wheat, corn, rice, soybean, cotton, oilseed rape, millet, sorghum, potato, sesame, ricinus, etc.) were placed in plastic pots filled with soil, then covered with 0.5-2 cm of soil, allowed to grow in a good greenhouse environment. After 2 weeks of sowing, the test plants were treated in the 2-3 leaf stage. The tested compounds of the present invention were respectively dissolved in acetone, then added with Tween 80 and 1.5 liter/ha of emulsifiable concentrate of methyl oleate as synergist, diluted with a certain amount of water to obtain a solution with a certain concentration, and sprayed with a spray tower onto the plants. After the application, the plants were cultured for 3 weeks in the greenhouse, and then the experimental results of the weeding were counted. The doses of the used compounds were 500, 250, 125, 60, 15, 7.5 g a.i./ha, and the averages were obtained by repeating for three times.
# Beckmannia syzigachne = conditions: dose 15 g a.i./ha, 3 weeks after application, fresh weight control rate
# Description: as §1, §2, §3, §4, §5
# Capsella bursa-pastoris = conditions: dose 15 g a.i./ha, 3 weeks after application, fresh weight control rate
# Description: as §1, §2, §3, §4, §5
# Conyza japonica = conditions: post-emergence, dose 15 g a.i./ha, 3 weeks after application, fresh weight control rate
# Description: as §1, §2, §3, §4, §5
SMILES,"Activity level (growth control rate), Alopecurus japonicus (Alopecurus japonicus)","Activity level (growth control rate), Beckmannia syzigachne (Beckmannia syzigachne)","Activity level (growth control rate), Capsella bursa-pastoris (Capsella bursa-pastoris)","Activity level (growth control rate), Conyza japonica (Conyza japonica)"
COC(=O)C12CCCC1C(c1cc(-n3c(=O)n(C)c(=S)n(C)c3=O)c(F)cc1Cl)=NO2 (stereo not shown) [Compound 2],5 (Level 5: growth control rate is above 85%),5 (Level 5: growth control rate is above 85%),5 (Level 5: growth control rate is above 85%),5 (Level 5: growth control rate is above 85%)
CCCOC(=O)C12CCCC1C(c1cc(-n3c(=O)n(C)c(=S)n(C)c3=O)c(F)cc1Cl)=NO2 (stereo not shown) [Compound 4],5 (Level 5: growth control rate is above 85%),5 (Level 5: growth control rate is above 85%),5 (Level 5: growth control rate is above 85%),4 (Level 4: growth control rate is greater than or equal to 60% and less than 85%)
C=CCOC(=O)C12CCCC1C(c1cc(-n3c(=O)n(C)c(=S)n(C)c3=O)c(F)cc1Cl)=NO2 (stereo not shown) [Compound 10],5 (Level 5: growth control rate is above 85%),5 (Level 5: growth control rate is above 85%),5 (Level 5: growth control rate is above 85%),4 (Level 4: growth control rate is greater than or equal to 60% and less than 85%)
C#CCOC(=O)C12CCCC1C(c1cc(-n3c(=O)n(C)c(=S)n(C)c3=O)c(F)cc1Cl)=NO2 (stereo not shown) [Compound 13],5 (Level 5: growth control rate is above 85%),5 (Level 5: growth control rate is above 85%),5 (Level 5: growth control rate is above 85%),4 (Level 4: growth control rate is greater than or equal to 60% and less than 85%)
Cn1c(=S)n(C)c(=O)n(-c2cc(C3=NOC4(C(=O)OCC5CCCO5)CCCC34)c(Cl)cc2F)c1=O (stereo not shown) [Compound 49],4 (Level 4: growth control rate is greater than or equal to 60% and less than 85%),5 (Level 5: growth control rate is above 85%),5 (Level 5: growth control rate is above 85%),4 (Level 4: growth control rate is greater than or equal to 60% and less than 85%)
Cn1c(=S)n(C)c(=O)n(-c2cc(C3=NOC4(C(=O)OCc5ccccc5)CCCC34)c(Cl)cc2F)c1=O (stereo not shown) [Compound 51],4 (Level 4: growth control rate is greater than or equal to 60% and less than 85%),4 (Level 4: growth control rate is greater than or equal to 60% and less than 85%),5 (Level 5: growth control rate is above 85%),4 (Level 4: growth control rate is greater than or equal to 60% and less than 85%)
CC(C)=NOC(=O)C12CCCC1C(c1cc(-n3c(=O)n(C)c(=S)n(C)c3=O)c(F)cc1Cl)=NO2 (stereo not shown) [Compound 66],5 (Level 5: growth control rate is above 85%),4 (Level 4: growth control rate is greater than or equal to 60% and less than 85%),5 (Level 5: growth control rate is above 85%),4 (Level 4: growth control rate is greater than or equal to 60% and less than 85%)
COC(=O)C12CCCC1C(c1cc(-n3c(=O)cc(C(F)(F)F)n(C)c3=O)c(F)cc1Br)=NO2 (stereo not shown) [Compound 210],5 (Level 5: growth control rate is above 85%),5 (Level 5: growth control rate is above 85%),5 (Level 5: growth control rate is above 85%),5 (Level 5: growth control rate is above 85%)
Cn1c(C(F)(F)F)cc(=O)n(-c2cc(C3=NOC4(C(=O)O)CCCC34)c(Cl)cc2F)c1=O (stereo not shown) [Compound 213],5 (Level 5: growth control rate is above 85%),5 (Level 5: growth control rate is above 85%),5 (Level 5: growth control rate is above 85%),4 (Level 4: growth control rate is greater than or equal to 60% and less than 85%)
COC(=O)C12CCCC1C(c1cc(-n3c(=O)cc(C(F)(F)F)n(C)c3=O)c(F)cc1Cl)=NO2 (stereo not shown) [Compound 214],5 (Level 5: growth control rate is above 85%),5 (Level 5: growth control rate is above 85%),5 (Level 5: growth control rate is above 85%),5 (Level 5: growth control rate is above 85%)
CCOC(=O)C12CCCC1C(c1cc(-n3c(=O)cc(C(F)(F)F)n(C)c3=O)c(F)cc1Cl)=NO2 (stereo not shown) [Compound 215],5 (Level 5: growth control rate is above 85%),5 (Level 5: growth control rate is above 85%),5 (Level 5: growth control rate is above 85%),4 (Level 4: growth control rate is greater than or equal to 60% and less than 85%)
CCCOC(=O)C12CCCC1C(c1cc(-n3c(=O)cc(C(F)(F)F)n(C)c3=O)c(F)cc1Cl)=NO2 (stereo not shown) [Compound 216],5 (Level 5: growth control rate is above 85%),5 (Level 5: growth control rate is above 85%),5 (Level 5: growth control rate is above 85%),4 (Level 4: growth control rate is greater than or equal to 60% and less than 85%)
CC(C)OC(=O)C12CCCC1C(c1cc(-n3c(=O)cc(C(F)(F)F)n(C)c3=O)c(F)cc1Cl)=NO2 (stereo not shown) [Compound 217],5 (Level 5: growth control rate is above 85%),5 (Level 5: growth control rate is above 85%),5 (Level 5: growth control rate is above 85%),4 (Level 4: growth control rate is greater than or equal to 60% and less than 85%)
C=CCOC(=O)C12CCCC1C(c1cc(-n3c(=O)cc(C(F)(F)F)n(C)c3=O)c(F)cc1Cl)=NO2 (stereo not shown) [Compound 222],5 (Level 5: growth control rate is above 85%),5 (Level 5: growth control rate is above 85%),5 (Level 5: growth control rate is above 85%),4 (Level 4: growth control rate is greater than or equal to 60% and less than 85%)
C#CCOC(=O)C12CCCC1C(c1cc(-n3c(=O)cc(C(F)(F)F)n(C)c3=O)c(F)cc1Cl)=NO2 (stereo not shown) [Compound 225],5 (Level 5: growth control rate is above 85%),5 (Level 5: growth control rate is above 85%),5 (Level 5: growth control rate is above 85%),4 (Level 4: growth control rate is greater than or equal to 60% and less than 85%)
Cn1c(C(F)(F)F)cc(=O)n(-c2cc(C3=NOC4(C(=O)OCCF)CCCC34)c(Cl)cc2F)c1=O (stereo not shown) [Compound 231],5 (Level 5: growth control rate is above 85%),5 (Level 5: growth control rate is above 85%),5 (Level 5: growth control rate is above 85%),4 (Level 4: growth control rate is greater than or equal to 60% and less than 85%)
COC(=O)C12CCCC1C(c1cc(/N=c3\sc(=O)n4n3CCCC4)c(F)cc1Cl)=NO2 (stereo not shown) [Compound 575],4 (Level 4: growth control rate is greater than or equal to 60% and less than 85%),–,5 (Level 5: growth control rate is above 85%),4 (Level 4: growth control rate is greater than or equal to 60% and less than 85%)
COC(=O)C12CCCC1C(c1cc(-c3nnc(C(F)(F)F)cc3OC)c(F)cc1Cl)=NO2 (stereo not shown) [Compound 578],5 (Level 5: growth control rate is above 85%),–,5 (Level 5: growth control rate is above 85%),4 (Level 4: growth control rate is greater than or equal to 60% and less than 85%)
